# From patent US20110039873A1, “SUBSTITUTED PYRAZOLO[1,5-a] PYRIDINE COMPOUNDS HAVING MULTI-TARGET ACTIVITY” (priority 2009, published 2011)
# Like-named read-outs stand apart in the source and are kept apart here.
# What was measured:
# [1] = system: Mouse BV-2 microglial cells; test: BV-2 glial cell assay (TNF-α and MCP-1 by Luminex); assay type: cell-based; details: for EC50: Mus musculus, BV-2, LPS and IFN-γ activated, 20 hours; for inhibiting glial cell activation (TNF-α and/or MCP-1): Table 3
# Experimental: Mouse BV-2 microglial cells were seeded on 96-well plates at a concentration of 3×10^4 cells/well. Cells were activated with 100 ng/mL LPS and IFN-γ (100 ng/mL) in the presence or absence of test compounds (0-30 uM). Following incubation for 20 hours, cells were spun down and supernatant collected. The supernatant was analyzed via Luminex for the presence of TNF-α and MCP-1.
# [2] = target: T1, recombinant full length human JNK2 enzyme (Homo sapiens, UniProt P45984); test: JNK 2 inhibition assay (ATP depletion, luciferase); assay type: biochemical
# T1 construct: recombinant full length human JNK2 or JNK3 enzyme; purchased Upstate; host or cells: Sf21 cells
# Experimental: In a 96-well plate, recombinant full length human JNK2 or JNK3 enzyme (40 ng) expressed in Sf21 cells (Upstate) was incubated with the substrate ATF2 (3 uM) for 1 hour in the presence of 10 uM ATP. […] IC50 calculations were plotted using a nonlinear regression curve fit.
# [3] = target: T2, catalytic domain of phosphodiesterase 4B enzyme cloned from human brain (Homo sapiens, UniProt Q07343); test: PDE4 inhibition assay (PDELight); assay type: biochemical; details: for IC50: 5 uM cAMP, read-out: PDE 4 Inhibition (IC50 in μM)
# T2 construct: the catalytic domain of phosphodiesterase 4B enzyme; purchased Scottish Biomedical
# Procedure, shortened: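 Human PDE4B catalytic domain (40 mU/well) incubated with 5 uM cAMP. AMP formed was converted to ATP and measured by luciferase luminescence (PDELight). IC50 derived by nonlinear regression curve fit.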
# [4] = system: rat chronic constriction injury (CCI) model of neuropathic pain; test: Rat chronic constriction injury (CCI) model of neuropathic pain; assay type: in vivo; details: for IP CCI efficacy (Change in grams): dose not given, 50% paw withdrawal threshold, von Frey
# Male Wistar rats = test: Morris Maze test; assay type: in vivo, rat
# From the text: The potential cognitive enhancing properties of the exemplary compound, AV1137, were examined in the Morris Maze test in the rat.
# Male Wistar rats were given 4 training sessions over 4 consecutive days. The training session consisted of 4 consecutive trials in the Morris Maze, each separated by 60 seconds. For each trial, the animal was placed in the maze at one of two starting points equidistant from the escape platform and allowed to find the escape platform. The animal was left on the escape platform for 60 seconds before starting a new trial. […] During the 4 trials the animals started the maze twice from each starting point in a randomly determined order per animal.
# The trials were video-recorded and the behaviour of animals was analysed using a video-tracking system (Panlab: SMART). The measures taken were the escape latency, the path length and the swim speed at each trial. Scopolamine (0.5 mg/kg i.p.), administered 30 minutes before each session, induces amnesia as indicated by the failure of scopolamine-treated rats to reduce their escape latencies from trial to trial. 12 rats were studied per group. […]
# AV1137 was evaluated at 2 and 5 mg/kg, administered twice daily. […]
# AV1137 was also administered at the end of each acquisition day (i.e. 6-8 hours after the first administration). […] Data were analyzed by comparing treated groups with appropriate control using unpaired Student's t tests.
# 6-OHDA lesioned rats = test: 6-OHDA (Parkinson's) model, apomorphine induced rotations; assay type: in vivo, rat; details: 50 mg/kg PO once daily, after 7 days; control 444, baseline 315
# Experimental: AV1173 was evaluated in a 6-OHDA lesioned rats, a standard rat model of Parkinson's disease. (See, e.g., Ungerstedt, U. “6-hydroxydopamine induced degeneration of monoamine neurons.” Eur. J. Pharm. 5: 107-110, 1968; Garvey P M, et al., “Injection of biologically relevant active substances into the brain.” Methods in Neurosciences. 21: 214-234, 1994).
# Pre-lesioned rats were purchased from a vendor (Taconic) following stereotaxic injection into the brain of the neurotoxin 6-hydroxydopamine (6-OHDA), which leads to neuronal cell loss in those brain regions affected in PD (in particular the substantia nigra). Briefly, anesthetized rats were injected with […] of 6-OHDA using stereotaxic coordinates to locate the needle within the nigrostatial pathway. A 2 ug/uL solution of 6-OHDA was infused at a rate of 1 ul/min for four minutes. […] On […] post-injection, rats began a once-daily oral regimen of AV1173 (50 mg/kg PO). Rats were assessed for rotational behavior following 0.5 mg/kg apomorphine challenge, one week from the initiation of dosing (Day 17 post-6-OHDA injection).
# [5] = read-out: MCP-1 BV-2 (EC50 in μM)
# [6] = read-out: TNF-a BV-2 (EC50 in μM)
# [7] = 10 uM ATP, ATF2 substrate, read-out: JNK 2 Inhibition (IC50 in μM)
# [8] = read-out: IC50 value based upon a JNK 2 inhibition assay (range given)
# T1 sequence (P45984 whole entry): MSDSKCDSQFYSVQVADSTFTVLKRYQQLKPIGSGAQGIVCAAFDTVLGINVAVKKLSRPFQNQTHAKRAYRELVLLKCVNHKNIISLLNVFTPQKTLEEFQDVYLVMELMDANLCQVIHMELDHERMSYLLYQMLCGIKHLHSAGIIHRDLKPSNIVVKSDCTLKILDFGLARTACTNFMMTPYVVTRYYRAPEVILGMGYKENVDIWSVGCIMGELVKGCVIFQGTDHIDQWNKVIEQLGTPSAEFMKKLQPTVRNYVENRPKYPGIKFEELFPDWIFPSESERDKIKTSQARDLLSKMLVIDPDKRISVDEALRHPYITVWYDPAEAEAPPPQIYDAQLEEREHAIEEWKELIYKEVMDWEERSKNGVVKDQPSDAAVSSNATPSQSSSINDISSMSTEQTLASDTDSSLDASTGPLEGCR
# T2 sequence (Q07343 330-659 limits assumed): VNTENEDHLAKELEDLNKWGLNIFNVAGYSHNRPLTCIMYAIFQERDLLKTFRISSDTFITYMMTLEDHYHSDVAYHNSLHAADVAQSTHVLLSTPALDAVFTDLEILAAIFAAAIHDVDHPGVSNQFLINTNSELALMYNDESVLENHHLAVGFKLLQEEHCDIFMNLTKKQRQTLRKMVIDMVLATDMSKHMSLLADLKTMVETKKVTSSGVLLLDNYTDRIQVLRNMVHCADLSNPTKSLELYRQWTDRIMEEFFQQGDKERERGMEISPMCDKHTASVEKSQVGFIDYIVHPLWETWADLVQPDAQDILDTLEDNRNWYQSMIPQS
"EC50 [1, 5] [µM]","EC50 [1, 6] [µM]","IC50 [2, 7] [µM]",PDE-4 inhibition (in words) [3],IC50 [3] [µM],"IC50 [2, 8] [µM]",Structure (SMILES),inhibiting glial cell activation (TNF-α and/or MCP-1) [1],IP CCI efficacy (Change in grams) [4] [grams],PO CCI efficacy (Change in grams) ([4]; 75 mg/kg),"escape latencies (Male Wistar rats; normal rats (no scopolamine), 5 mg/kg i.p., relative to saline controls, FIG. 5)","escape latency and distance swum (Male Wistar rats; scopolamine-induced deficit, 2 and 5 mg/kg i.p. twice daily, relative to scopolamine treated controls, FIG. 4)",PO CCI efficacy (Change in grams) ([4]; 30 mg/kg),"reversal of allodynia ([4]; oral dosing, multi-day, 24 hr time-points, FIG. 6)",average number of apomorphine induced rotations in 30 minutes (6-OHDA lesioned rats)
1.1,1.2,1.6,particularly effective,4.3,,"CC(C)Nc1nccc(-c2c(C(C)C)nn3ccccc23)n1 [AV1137, N-isopropyl-4-(2-isopropylpyrazolo[1,5-a]pyridin-3-yl)pyrimidin-2-amine]",Particularly effective,3.26,0.94 (75 mg/kg) grams,trend for reduced escape latencies,trend was seen for decreased escape latency and distance swum,,,
4.9,0.4,0.5,particularly effective,5.9,0.01 to 2,"CC(C)Nc1nccc(-c2cnn3ccccc23)n1 [AV1164, N-isopropyl-4-(pyrazolo[1,5-a]pyridin-3-yl)pyrimidin-2-amine]",Particularly effective,1.56,,,,,,
0.6,0.2,0.4,,14,0.01 to 2,"c1ccn2ncc(-c3ccnc(NC4CCCC4)n3)c2c1 [AV1165, N-cyclopentyl-4-(pyrazolo[1,5-a]pyridin-3-yl)pyrimidin-2-amine]",Particularly effective,0.44,,,,,,
0.7,1.4,0.3,particularly effective,1.1,0.01 to 2,"CC(C)Nc1nccc(-c2c(C3CC3)nn3ccccc23)n1 [AV1173, 4-(2-cyclopropylpyrazolo[1,5-a]pyridin-3-yl)-N-isopropylpyrimidin-2-amine]",Particularly effective,2.5,,,,1.6 (30 mg/kg) grams,capable of reversing allodynia and sustaining the efficacy overnight,354
